Measurements from paper PMC5127132 (2016).

Columns and labels:
[1] = test system: H12 (5'-FAM) (DNA, aptamer) GGGAGGACGAAGCGGAACCGGGTGTGGGTGCCTTGATCCAGGGAGTCTCAGAAGACACGCCCGACA; assay: microscale thermophoresis; conditions: 137 mM NaCl, 2.7 mM KCl, 1 mM MgCl2; 10 mM Na2HPO4, 2 mM KH2PO4, pH 7.4, 25 °C
[2] = test system: A08min (DNA, aptamer) GGCAGTGTGGGCGAATCTATGCGTACCGTTCGATATCGTG; assay: gold nanoparticle aggregation; conditions: 0.5 M NaCl added last; in water; OTA 0.2 to 70 nM
[3] = test system: A08 (DNA, aptamer) AGCCTCGTCTGTTCTCCCGGCAGTGTGGGCGAATCTATGCGTACCGTTCGATATCGTGGGGAAGACAAGCAGACGT; assay: SYBR Green I displacement; conditions: 137 mM NaCl, 2.7 mM KCl; 10 mM Na2HPO4, 2 mM KH2PO4, pH 7.4; OTA 0.2 to 70 nM
[4] = test system: A08 (DNA, aptamer) AGCCTCGTCTGTTCTCCCGGCAGTGTGGGCGAATCTATGCGTACCGTTCGATATCGTGGGGAAGACAAGCAGACGT; assay: gold nanoparticle aggregation; conditions: 0.5 M NaCl added last; in water; OTA 0.2 to 70 nM
[5] = test system: A08min (5'-FAM) (DNA, aptamer) GGCAGTGTGGGCGAATCTATGCGTACCGTTCGATATCGTG; assay: microscale thermophoresis; conditions: 137 mM NaCl, 2.7 mM KCl; 10 mM Na2HPO4, 2 mM KH2PO4, pH 7.4, 25 °C
[6] = test system: H8 (5'-FAM) (DNA, aptamer) GGGAGGACGAAGCGGAACTGGGTGTGGGGTGATCAAGGGAGTAGACTACAGAAGACACGCCCGACA; assay: microscale thermophoresis; conditions: 137 mM NaCl, 2.7 mM KCl, 1 mM MgCl2; 10 mM Na2HPO4, 2 mM KH2PO4, pH 7.4, 25 °C
[7] = test system: A08 (5'-FAM) (DNA, aptamer) AGCCTCGTCTGTTCTCCCGGCAGTGTGGGCGAATCTATGCGTACCGTTCGATATCGTGGGGAAGACAAGCAGACGT; assay: microscale thermophoresis; conditions: 137 mM NaCl, 2.7 mM KCl; 10 mM Na2HPO4, 2 mM KH2PO4, pH 7.4, 25 °C
[8] = test system: 1.12.2 (DNA, aptamer) GATCGGGTGTGGGTGGCGTAAAGGGAGCATCGGACA; assay: gold nanoparticle aggregation; conditions: 0.5 M NaCl added last; in water; OTA 0.2 to 70 nM
[9] = test system: 1.12.2 (5'-FAM) (DNA, aptamer) GATCGGGTGTGGGTGGCGTAAAGGGAGCATCGGACA; assay: microscale thermophoresis (raw fluorescence, quenching); conditions: 120 mM NaCl, 5 mM KCl, 10 mM CaCl2; 10 mM HEPES, pH 7.0, 25 °C; raw fluorescence quenching analysed, may have skewed KD
[10] = test system: 1.12.2 (DNA, aptamer) GATCGGGTGTGGGTGGCGTAAAGGGAGCATCGGACA; assay: SYBR Green I displacement; conditions: 120 mM NaCl, 5 mM KCl, 10 mM CaCl2; 10 mM HEPES, pH 7.0; OTA 0.2 to 70 nM
[11] = test system: A08min (DNA, aptamer) GGCAGTGTGGGCGAATCTATGCGTACCGTTCGATATCGTG; assay: SYBR Green I displacement; conditions: 137 mM NaCl, 2.7 mM KCl; 10 mM Na2HPO4, 2 mM KH2PO4, pH 7.4; OTA 0.2 to 70 nM

- KD [1]: 629.5 ± 79.7 nM
- binding [2]: yes
- binding [3]: yes
- binding [4]: yes
- KD [5]: 96.5 ± 33.3 nM
- KD [6]: 416.1 ± 119.0 nM
- KD [7]: 232.6 ± 80.6 nM
- binding [8]: yes
- KD [9]: 524.8 ± 147.8 nM
- binding [10]: yes
- binding [11]: yes
SMILES: C[C@@H]1Cc2c(Cl)cc(C(=O)N[C@@H](Cc3ccccc3)C(=O)O)c(O)c2C(=O)O1
